Four compounds from patent US9045443B2, “Nitric oxide donor neprilysin inhibitors” (Theravance Biopharma R&D IP, LLC, priority 2012, dated 2015) can be followed below.

This assay concerns the target T1, human NEP (Homo sapiens, UniProt P08473).
T1 construct: purchased R&D Systems, Minneapolis, Minn; 1182-ZN
As to the kind of experiment: In vitro enzyme inhibition assay at human NEP (Assay 1). The assay is classed as biochemical. Particulars: recombinant human NEP, fluorogenic peptide substrate 10 μM, 37° C.; values may be affected by hydrolysis in the assay conditions, approximations; read-out: pKi at human NEP (converted). The procedure:
The inhibitory activities of compounds at human and rat neprilysin (EC 3.4.24.11; NEP) and human angiotensin converting enzyme (ACE) were determined using in vitro assays as described below.
Recombinant human NEP and recombinant human ACE were obtained commercially (R&D Systems, Minneapolis, Minn., catalog numbers 1182-ZN and 929-ZN, respectively). The fluorogenic peptide substrate Mca-D-Arg-Arg-Leu-Dap-(Dnp)-OH (Medeiros et al. (1997) Braz. J. Med. Biol. Res. 30:1157-62; Anaspec, San Jose, Calif.) and Abz-Phe-Arg-Lys(Dnp)-Pro-OH (Araujo et al. (2000) Biochemistry 39:8519-8525; Bachem, Torrance, Calif.) were used in the NEP and ACE assays respectively.
The assays were performed in 384-well white opaque plates at 37° C. using the fluorogenic peptide substrates at a concentration of 10 μM in Assay Buffer (NEP: 50 mM HEPES, pH 7.5, 100 mM NaCl, 0.01% polyethylene glycol sorbitan monolaurate (Tween-20), 10 μM ZnSO4; ACE: 50 mM HEPES, pH 7.5, 100 mM NaCl, 0.01% Tween-20, 1 μM ZnSO4).
Test compounds were assayed over the range of concentrations from […] to 20 μM. Test compounds were added to the enzymes and incubated for 30 minute at 37° C. prior to initiating the reaction by the addition of substrate. Reactions were terminated after 20 minutes of incubation at 37° C. by the addition of glacial acetic acid to a final concentration of 3.6% (v/v).
Plates were read on a fluorometer with excitation and emission wavelengths set to 320 nm and 405 nm, respectively Inhibition constants were obtained by nonlinear regression of the data using the equation (GraphPad Software, Inc., San Diego, Calif.): v=v0/[1+(I/K′)] where v is the reaction rate, v0 is the uninhibited reaction rate, I is the inhibitor concentration and K′ is the apparent inhibition constant.
Compounds of the invention were tested in this assay and found to have pKi values at human NEP as follows, noting however, that these values may be affected by hydrolysis in the assay conditions and are therefore approximations of activity.

T1 sequence (P08473 52-750 limits assumed): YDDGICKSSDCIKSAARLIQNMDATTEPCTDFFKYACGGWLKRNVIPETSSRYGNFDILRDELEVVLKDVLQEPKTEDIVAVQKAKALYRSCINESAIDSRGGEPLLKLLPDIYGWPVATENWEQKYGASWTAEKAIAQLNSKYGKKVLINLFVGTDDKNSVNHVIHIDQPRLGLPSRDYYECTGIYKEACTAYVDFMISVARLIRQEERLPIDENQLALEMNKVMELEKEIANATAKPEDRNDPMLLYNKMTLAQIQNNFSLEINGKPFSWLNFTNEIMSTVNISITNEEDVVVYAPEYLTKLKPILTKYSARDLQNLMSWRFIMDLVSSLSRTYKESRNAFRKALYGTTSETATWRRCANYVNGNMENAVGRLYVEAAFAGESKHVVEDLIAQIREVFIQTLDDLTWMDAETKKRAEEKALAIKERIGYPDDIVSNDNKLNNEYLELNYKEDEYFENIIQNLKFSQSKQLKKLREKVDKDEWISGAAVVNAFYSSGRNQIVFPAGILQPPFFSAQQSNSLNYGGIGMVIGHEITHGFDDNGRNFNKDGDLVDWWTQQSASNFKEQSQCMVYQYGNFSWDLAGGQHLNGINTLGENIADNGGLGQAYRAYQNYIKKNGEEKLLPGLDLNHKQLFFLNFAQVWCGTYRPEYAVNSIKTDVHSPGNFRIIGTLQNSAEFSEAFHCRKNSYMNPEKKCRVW

With `O=C(O)C(=O)N[C@H](Cc1ccc(-c2ccccc2)cc1)C[C@@H](O)C(=O)OCCCCO[N+](=O)[O-]` [Example 3, (2R,4R)-5-Biphenyl-4-yl-2-hydroxy-4-(oxalylamino)-pentanoic Acid 4-Nitrooxybutyl Ester], the Ki was 316 to 1000 nM.
For `O=C(N[C@H](Cc1ccc(-c2ccccc2)cc1)C[C@@H](O)C(=O)OCCCCOc1no[n+]([O-])c1S(=O)(=O)c1ccccc1)c1cc(O)no1` [Example 2, (2R,4R)-5-Biphenyl-4-yl-2-hydroxy-4-[(3-hydroxyisoxazole-5-carbonyl)amino]pentanoic Acid 4-(4-Benzenesulfonyl-5-oxyfurazan-3-yloxy)butyl Ester], the Ki was 31.6 to 100 nM.
`O=C(N[C@H](Cc1ccc(-c2ccccc2)cc1)C[C@@H](O)C(=O)OCCCCO[N+](=O)[O-])c1cc(O)no1` [Example 1, (2R,4R)-5-Biphenyl-4-yl-2-hydroxy-4-[(3-hydroxyisoxazole-5-carbonyl)amino]pentanoic Acid 4-Nitrooxybutyl Ester]: the Ki was 31.6 to 100 nM.
Consider `O=C(O)C(=O)N[C@H](Cc1ccc(-c2ccccc2)cc1)C[C@@H](O)C(=O)OCCCCOc1no[n+]([O-])c1S(=O)(=O)c1ccccc1` [Example 4, (2R,4R)-5-Biphenyl-4-yl-2-hydroxy-4-(oxalylamino)-pentanoic Acid 4-(4-Benzenesulfonyl-5-oxyfurazan-3-yloxy)butyl Ester], for which the Ki is 316 to 1000 nM.
